In publication PMC9551036, “A selective and orally bioavailable VHL-recruiting PROTAC achieves SMARCA2 degradation in vivo” (Nature Communications, 2022):
“And” between values parts separate entries of the source, which are not always exact repeats. Identical values can stand only once.

Test system: proteome of NCI-H1568 cells
Assay: Whole cell unbiased proteomics (TMT) in NCI-H1568 cells
Format: cell-based, human
Conditions: for Rel. Int.: TMT reporter intensity relative to DMSO 1; for Rel. Int. / Normalised: replicates 1-3; for average: average of normalised replicates; for log2: log2 fold change vs DMSO; for Normalised: normalised relative intensity
Method: Cells were seeded at 5 × 10^6 cells on a 100 mm plate 24 h before treatment. Cells were treated in triplicate by addition of test compounds at 100 nM. After 4 h, the cells were washed twice with 10 ml cold PBS and lysed in 500 µL of 100 mM TEAB with 5% (w/v) SDS. The lysate was pulse sonicated briefly and then centrifuged at 15,000 × g for 10 min. Samples were quantified using a micro-BCA protein assay kit (Thermo Fisher Scientific). 300 µg of each sample was reduced with DTT, alkalised with iodoacetamide and double-digested with trypsin using the modified S-TRAP mini (ProtiFi) protocol. Peptide quantification was done using Pierce™ Quantitative Fluorometric Peptide Assay and equal amount from each sample was labelled using TMTpro^TM 16plex Label Reagent Set (Thermo Fisher Scientific) as per the manufacturer’s instructions. The samples were then pooled and desalted using a 7 mm, 3 mL C18 SPE cartridge column (Empore, 3 M). The pooled and desalted sample was fractionated using high pH reverse-phase chromatography on an XBridge peptide BEH column (130 Å, 3.5 μm, 2.1 × 150 mm, Waters) on an Ultimate 3000 HPLC system (Thermo Scientific/Dionex). Buffers A (10 mM ammonium formate in water, pH 9) and B (10 mM ammonium formate in 90% acetonitrile, pH 9) were used over a linear gradient of 2% to 100% buffer B over 80 min at a flow rate of 200 μL/min. 80 fractions were collected using a WPS-3000 FC auto-sampler (Thermo Scientific) before concatenation into 20 fractions based on the UV signal of each fraction. All the fractions were dried in a Genevac EZ-2 concentrator and resuspended in 1% formic acid for MS analysis. The fractions were analysed sequentially on a Q Exactive HF Hybrid Quadrupole-Orbitrap Mass Spectrometer (Thermo Scientific) coupled to an Dionex Ultimate 3000 RS (Thermo Scientific). […] The column temperature was 50 °C. The mass spectrometer was operated in data dependent mode with a single MS survey scan from 335 to 1600 m/z followed by 15 sequential m/z dependent MS2 scans. The 15 most intense precursor ions were sequentially fragmented by higher energy collision dissociation (HCD). The MS1 isolation window was set to 0.7 m/z and the resolution set at 120,000. MS2 resolution was set at 60,000. The AGC targets for MS1 and MS2 were set at 3 × 10^6 ions and 1 × 10^5 ions, respectively. The normalised collision energy was set at 32%. The maximum ion injection times for MS1 and MS2 were set at 50 ms and 200 ms, respectively. The mass accuracy was checked before the initiation of sample analysis. The raw MS data files for all 20 fractions were merged and searched against the Uniprot-sprot-Human-Canonical database (FASTA file released in November 2019) by Maxquant software 2.0.3.0 for protein identification and TMT reporter ion quantitation. The Maxquant parameters were set as follows: enzyme used Trypsin/P; maximum number of missed cleavages equal to two; precursor mass tolerance equal to 10 p.p.m.; fragment mass tolerance equal to 20 p.p.m.; variable modifications: oxidation (M), dioxidation (MW), acetyl (N-term), deamidation (NQ), Gln -> pyro-Glu (Q N-term); fixed modifications: carbamidomethyl (C). Peptide and protein data was filtered by applying a 1% false discovery rate followed by exclusion of proteins with less than two unique peptides. Quantified proteins were filtered if the absolute fold-change difference between the three DMSO replicates was ≥1.5.

[1] = protein SIK1 (LOC102724428;SIK1)

Row | Compound | -logP | Rel. Int. (protein BRPF1 (P55201)) | average (protein BRPF1 (P55201)) | log2 (protein BRPF1 (P55201)) | Normalised (protein BRPF1 (P55201)) | Rel. Int. (protein ETS1 (P14921)) | average (protein ETS1 (P14921)) | log2 (protein ETS1 (P14921)) | Normalised (protein ETS1 (P14921)) | Rel. Int. (protein PBRM1 (Q86U86)) | average (protein PBRM1 (Q86U86)) | log2 (protein PBRM1 (Q86U86)) | Normalised (protein PBRM1 (Q86U86)) | Rel. Int. [1] | average [1] | log2 [1] | Normalised [1] | Rel. Int. (protein SMARCA2 (P51531)) | average (protein SMARCA2 (P51531)) | log2 (protein SMARCA2 (P51531)) | also measured
1 | Cc1ncsc1-c1ccc([C@H](CC[C@H](C)CCN2CCC(c3ccc4c(c3)n(C3CCCC3)c3nc(=O)c5c(Br)cccc5n43)CC2)NC(=O)[C@@H]2C[C@H](O)CN2C(=O)[C@@H](NC(=O)C2(F)CC2)C(C)(C)C)cc1 [compound 12] | 0.0276 | 0.90 and 0.91 (2×) | 0.99 | -0.0113 | 0.98 (2×) and 1.02 | 0.94 and 0.98 and 0.91 | 1.03 | 0.05 | 1.04 and 1.05 and 1.02 | 0.85 and 0.92 and 0.84 | 0.95 | -0.07 | 0.93 and 0.98 and 0.94 | 0.93 and 0.92 and 0.88 | 1.00 | -0.00277 | 1.02 and 0.98 and 0.99 | 0.90 and 0.92 and 0.88 | 0.99 | -0.0184 | Normalised (protein SMARCA2 (P51531)): 0.99 (2×) and 0.98
2 | Cc1ncsc1-c1ccc(C(CCC(C)CCN2CCC(c3ccc4c(c3)n(C3CCCC3)c3nc(=O)c5c(Br)cccc5n43)CC2)NC(=O)C2CC(O)CN2C(=O)C(NC(=O)C2(F)CC2)C(C)(C)C)cc1 (stereo not drawn) [ACBI2] | 4.42 | 0.86 and 0.73 and 0.58 | 0.72 | -0.46 | 0.74 and 0.73 and 0.70 | 1.29 and 1.11 and 0.95 | 1.13 | 0.17 | 1.12 (2×) and 1.14 | 0.41 and 0.40 and 0.32 | 0.38 | -1.40 | 0.36 and 0.40 and 0.39 | 1.44 and 1.21 and 1.03 | 1.24 | 0.30 | 1.25 and 1.21 and 1.24 | 0.52 and 0.45 and 0.40 | 0.46 | -1.12 | Normalised (protein SMARCA2 (P51531)): 0.45 and 0.46 and 0.48
